Test systems include NCI/ADR-RES; SNB-19; UO-31; OVCAR-3; SW-620; HOP-62; CCRF-CEM; RXF 393; SK-MEL-28; DU-145; UACC-62; NCI-H23; SF-539; PC-3; SNB-75; SF-268; CAKI-1; MOLT-4; HCC 2998; SR.
Experiment in all cases: inhibition of tumour cell growth, NCI panel, 48 h

Consider twelve molecules from ChEMBL document CHEMBL1201862, “PubChem BioAssay data set” (2004).

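In this assay, cells in 96-well plates receive the compound at five concentrations for 48 hours. Endpoints are linearly interpolated between the surrounding concentrations. Abbreviation: GI50, concentration required for 50% inhibition of growth.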 Active and inactive are the calls of the source. No stated cut-off is given here; in the data, active = GI50 up to about 1.1 µM and inactive = higher.

Take `CC(C)(C)c1cc(/C=C/C(=O)CC(=O)/C=C/c2cc(C(C)(C)C)c(O)c(C(C)(C)C)c2)cc(C(C)(C)C)c1O`: the GI50 with NCI/ADR-RES, in the experiment on SNB-19, with UO-31, in the experiment with OVCAR-3, with SW-620 and in the experiment with HOP-62 was > 50 µM (inactive) each time. Further, the GI50 with CCRF-CEM, with RXF 393, in the experiment with SK-MEL-28, in the experiment on DU-145, in the experiment on UACC-62 and with NCI-H23 was > 50 µM (inactive) each time. Moreover, the GI50 in the experiment on SF-539, with PC-3, in the experiment with SNB-75 and with SF-268 was > 50 µM (inactive) throughout.
Turning to `N#Cc1nc(C(=O)c2ccccc2)oc1N`, the GI50 in the experiment with SNB-19, with CAKI-1, in the experiment with SW-620, in the experiment with HOP-62, in the experiment on CCRF-CEM and with SK-MEL-28 was > 100 µM (inactive) in each case. In addition, the GI50 in the experiment with DU-145 is > 100 µM (inactive); with MOLT-4 it was > 100 µM (inactive); in the experiment on UACC-62, > 100 µM (inactive); in the experiment on PC-3, > 100 µM (inactive); in the experiment with SNB-75 it was 0.052 µM (active); with SF-268, > 100 µM (inactive).
Take `COc1ccc(N2C(=O)/C(=C\c3cc(OC)c(OC)c(OC)c3)S(=O)(=O)C2c2ccccc2)cc1` (configuration not stated): the GI50 in the experiment on NCI/ADR-RES is 17.2 µM (inactive); in the experiment on SNB-19 it was 18.5 µM (inactive); in the experiment on UO-31, 14.8 µM (inactive); in the experiment with HCC 2998, 89.3 µM (inactive); in the experiment on OVCAR-3, 27 µM (inactive); with CAKI-1, 84.7 µM (inactive). The GI50 is 48.6 µM (inactive) in the experiment on SW-620; 48.8 µM (inactive) in the experiment with HOP-62; 39.2 µM (inactive) with CCRF-CEM; 15.7 µM (inactive) with RXF 393; 50.7 µM (inactive) in the experiment with SK-MEL-28; 71.3 µM (inactive) with DU-145. Further, the GI50 with MOLT-4 was 28.5 µM (inactive); with UACC-62 it was 21.6 µM (inactive); in the experiment on SR, 11 µM (inactive); in the experiment on NCI-H23 it was 25.8 µM (inactive); in the experiment with SF-539, 37.9 µM (inactive); in the experiment on SF-268, 52 µM (inactive).
In the case of `Cc1cc(NC(=O)NC(=O)c2ccccc2[N+](=O)[O-])ccc1Oc1ncc(Cl)cn1`, the GI50 in the experiment with SNB-19 is 0.212 µM (active); in the experiment with UO-31 it was 0.0889 µM (active); in the experiment with HCC 2998 it was 0.146 µM (active); in the experiment with OVCAR-3 it was 0.0361 µM (active); with SW-620, 0.0501 µM (active); in the experiment on HOP-62, 0.0581 µM (active). Besides, the GI50 was 0.0552 µM (active) with CCRF-CEM; 0.0447 µM (active) in the experiment with RXF 393; 2.37 µM (inactive) in the experiment with SK-MEL-28; 1.81 µM (inactive) in the experiment on DU-145; 0.0702 µM (active) in the experiment on MOLT-4; 0.0551 µM (active) with UACC-62. Further, the GI50 is 0.222 µM (active) in the experiment on NCI-H23; 0.0883 µM (active) with SF-539; 0.0336 µM (active) with PC-3; 0.0456 µM (active) in the experiment on SNB-75; 1.9 µM (inactive) in the experiment with SF-268.
Regarding `N#CC1=C(Cl)NC(Cl)=C(C#N)C1c1c(Cl)cccc1Cl`, the GI50 with SNB-19 was 27.9 µM (inactive); in the experiment on UO-31, 49.4 µM (inactive); with HCC 2998 it was 24.1 µM (inactive); in the experiment with OVCAR-3, 25.1 µM (inactive); with CAKI-1, 55.6 µM (inactive); in the experiment with SW-620 it was 14 µM (inactive). Also, the GI50 in the experiment on HOP-62 is 48.2 µM (inactive); in the experiment with CCRF-CEM, 24.4 µM (inactive); in the experiment on RXF 393, 22.6 µM (inactive); in the experiment with SK-MEL-28, 35.2 µM (inactive); in the experiment on MOLT-4, 32.5 µM (inactive); in the experiment with UACC-62, 30.2 µM (inactive). The GI50 with SR was 40.7 µM (inactive); with NCI-H23, 35.9 µM (inactive); with SF-539, 46 µM (inactive); in the experiment with SNB-75, 34.4 µM (inactive); with SF-268, 30.4 µM (inactive).
As for `CC1=C(O)C(=O)C2C(=O)C1C(C)C2c1ccccc1` (configuration not stated), the GI50 in the experiment with SNB-19, with UO-31, with HCC 2998, in the experiment on OVCAR-3, in the experiment with CAKI-1 and in the experiment with SW-620 was > 100 µM (inactive) in each case. In addition, the GI50 in the experiment with HOP-62, with CCRF-CEM, in the experiment with RXF 393, with SK-MEL-28, in the experiment with MOLT-4 and in the experiment with UACC-62 was > 100 µM (inactive) in each case. Also, the GI50 in the experiment with SR, in the experiment on NCI-H23, with SF-539, with SNB-75 and in the experiment on SF-268 was > 100 µM (inactive) each time.
With `C[C@]12CCc3nonc3C1CC[C@@H]1C2CC[C@]2(C)C(=O)/C(=N\O)CC12` (some centres not stated), the GI50 in the experiment on SNB-19, in the experiment on UO-31, in the experiment with HCC 2998, in the experiment on OVCAR-3, in the experiment with CAKI-1 and in the experiment with SW-620 was > 100 µM (inactive) in each case. The GI50 was > 100 µM (inactive) with HOP-62; > 100 µM (inactive) with CCRF-CEM; 3.87 µM (inactive) in the experiment on RXF 393; > 100 µM (inactive) in the experiment on SK-MEL-28; > 100 µM (inactive) in the experiment with MOLT-4; > 100 µM (inactive) in the experiment with UACC-62. In addition, the GI50 with SR was > 100 µM (inactive); in the experiment with NCI-H23, > 100 µM (inactive); in the experiment on SF-539, > 100 µM (inactive); with SNB-75 it was 28.1 µM (inactive); in the experiment on SF-268, > 100 µM (inactive).
`CC(=O)Nc1ccc(/C=N\N2C(=O)c3ccccc3C2=O)cc1`: the GI50 with SNB-19, in the experiment with UO-31, with HCC 2998, in the experiment with OVCAR-3, in the experiment with CAKI-1 and in the experiment with SW-620 was > 100 µM (inactive) in each case. The GI50 in the experiment with HOP-62, in the experiment with CCRF-CEM, in the experiment on RXF 393, with SK-MEL-28, in the experiment on MOLT-4 and in the experiment with UACC-62 was > 100 µM (inactive) each time. For the same molecule, the GI50 in the experiment with SR, with NCI-H23, in the experiment on SF-539, with SNB-75 and in the experiment on SF-268 was > 100 µM (inactive) throughout.
For the molecule `NC(=O)Nc1c(Cl)cc(S(N)(=O)=O)cc1Cl`, the GI50 with NCI/ADR-RES, in the experiment on SNB-19, in the experiment on UO-31, in the experiment on OVCAR-3, in the experiment with CAKI-1 and with SW-620 was > 100 µM (inactive) each time. The GI50 in the experiment on HOP-62, in the experiment with CCRF-CEM, in the experiment with RXF 393, in the experiment on SK-MEL-28, in the experiment on DU-145 and in the experiment on MOLT-4 was > 100 µM (inactive) in each case. Besides, the GI50 in the experiment with UACC-62, in the experiment on NCI-H23, with SF-539, with SNB-75 and with SF-268 was > 100 µM (inactive) in each case.
As to `O=c1c2ccccc2[nH]c2c(Cl)cc(Cl)c(N3CCCCC3)c12`, the GI50 with NCI/ADR-RES is 25.6 µM (inactive); in the experiment on SNB-19, 34.6 µM (inactive); in the experiment on UO-31 it was 20 µM (inactive); in the experiment with HCC 2998, 31.9 µM (inactive); in the experiment with OVCAR-3, 31.1 µM (inactive); in the experiment on CAKI-1, 30.5 µM (inactive). In addition, the GI50 in the experiment with SW-620 is 35.4 µM (inactive); in the experiment on HOP-62, 34 µM (inactive); in the experiment with CCRF-CEM it was > 10 µM (inactive); in the experiment with SK-MEL-28, 58.5 µM (inactive); in the experiment with MOLT-4, 26.4 µM (inactive); in the experiment on UACC-62, > 10 µM (inactive). In addition, the GI50 with SR was 36.5 µM (inactive); in the experiment on NCI-H23 it was 24.1 µM (inactive); in the experiment on SF-539 it was 21.9 µM (inactive); with PC-3, 35.5 µM (inactive); in the experiment with SNB-75, 30.1 µM (inactive).
As to `CN(C)/C=N\c1nncc2[nH]cnc12`, the GI50 was > 100 µM (inactive) in the experiment on NCI/ADR-RES; 98.6 µM (inactive) in the experiment with UO-31; > 100 µM (inactive) in the experiment with HCC 2998; > 100 µM (inactive) in the experiment with OVCAR-3; > 100 µM (inactive) with CAKI-1; 82.6 µM (inactive) in the experiment on SW-620. Also, the GI50 is 60.1 µM (inactive) in the experiment on HOP-62; 46.1 µM (inactive) with CCRF-CEM; > 100 µM (inactive) with SK-MEL-28; 77.6 µM (inactive) in the experiment on MOLT-4; 51.8 µM (inactive) in the experiment with UACC-62; > 100 µM (inactive) with NCI-H23. Besides, the GI50 in the experiment on SF-539, with PC-3 and in the experiment with SNB-75 was > 100 µM (inactive) throughout.
With `COC(=O)c1[nH]c(=S)[nH]c(=O)c1-c1ccc(Cl)cc1`, the GI50 in the experiment on SNB-19 is > 50 µM (inactive); in the experiment with UO-31, > 50 µM (inactive); in the experiment on HCC 2998, > 50 µM (inactive); in the experiment on OVCAR-3, > 50 µM (inactive); in the experiment with CAKI-1, > 12.2 µM (inactive); in the experiment with SW-620, > 50 µM (inactive). Also, the GI50 with HOP-62, in the experiment with CCRF-CEM, with RXF 393, with SK-MEL-28, in the experiment on MOLT-4 and in the experiment on UACC-62 was > 50 µM (inactive) in each case. The GI50 in the experiment with SR, in the experiment with NCI-H23, with SF-539, in the experiment on SNB-75 and with SF-268 was > 50 µM (inactive) throughout.
